Measurements: ChEMBL document CHEMBL1201862, “PubChem BioAssay data set” (2004)
Activity calls are given as the source filed them.

Experiments:
[1] = molecular target: Luciferin 4-monooxygenase (Photinus pyralis, UniProt P08659); assay: firefly luciferase enzyme inhibitors, dose response, biochemical, luminescence (AID 1891)
[2] = Luminescence Cell-Based Dose Confirmation HTS to Identify Inhibitors of Platelet Dense Granule Release. [Related pubchem assays: 1663 (Primary HTS), 1678 (Summary of Project)]; assay type: functional
[3] = molecular target: T1, Microphthalmia-associated transcription factor (Homo sapiens, UniProt O75030); assay: TRPM1 promoter luciferase signal decrease, dose response, MITF inhibitor project, cell-based, SK-MEL-5, cherry-picked, set 3 (AID 493073); assay type: functional
T1 sequence (O75030 whole entry): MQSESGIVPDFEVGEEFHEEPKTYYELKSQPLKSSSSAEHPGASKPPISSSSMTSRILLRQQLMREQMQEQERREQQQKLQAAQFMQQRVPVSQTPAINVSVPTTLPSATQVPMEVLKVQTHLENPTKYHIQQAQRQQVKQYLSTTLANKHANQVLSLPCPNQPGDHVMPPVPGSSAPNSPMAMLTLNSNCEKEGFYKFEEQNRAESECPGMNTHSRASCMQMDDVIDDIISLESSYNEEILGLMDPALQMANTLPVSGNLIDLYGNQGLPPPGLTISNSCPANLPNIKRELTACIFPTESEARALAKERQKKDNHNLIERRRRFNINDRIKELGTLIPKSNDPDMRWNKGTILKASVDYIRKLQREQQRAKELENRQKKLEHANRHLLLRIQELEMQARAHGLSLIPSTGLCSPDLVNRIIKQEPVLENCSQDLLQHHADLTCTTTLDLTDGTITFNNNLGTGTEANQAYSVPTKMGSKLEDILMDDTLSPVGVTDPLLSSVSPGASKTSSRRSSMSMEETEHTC

[4] = LGR2 antagonists, dose response, cell-based, HEK293, CRE-luciferase reporter, cherry pick, set 2 (AID 743343); assay type: functional;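 also: transfected cells were stimulated with diluted bursicon conditioned medium after compound addition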
[5] = MC4R antagonists, dose response, counter-screen for LGR2 antagonist project, cell-based, plate reader, cherry pick (AID 743444); assay type: functional;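 also: transfected HEK 293 cells stimulated with alpha-MSH peptide; potency of inhibitors of the alpha-MSH evoked signal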
[6] = HEK293 cell cytotoxicity, dose response, cytotoxicity control, plate reader, cherry-picked samples (AID 743446); assay type: functional, cell-based
[7] = molecular target: T2, Replicative DNA helicase DnaB (Mycobacterium tuberculosis, UniProt P9WMR3); assay: DnaB intein splicing inhibitors, dose response, biochemical, cell-free fluorescence (AID 449749); assay type: functional
T2 sequence (P9WMR3 whole entry): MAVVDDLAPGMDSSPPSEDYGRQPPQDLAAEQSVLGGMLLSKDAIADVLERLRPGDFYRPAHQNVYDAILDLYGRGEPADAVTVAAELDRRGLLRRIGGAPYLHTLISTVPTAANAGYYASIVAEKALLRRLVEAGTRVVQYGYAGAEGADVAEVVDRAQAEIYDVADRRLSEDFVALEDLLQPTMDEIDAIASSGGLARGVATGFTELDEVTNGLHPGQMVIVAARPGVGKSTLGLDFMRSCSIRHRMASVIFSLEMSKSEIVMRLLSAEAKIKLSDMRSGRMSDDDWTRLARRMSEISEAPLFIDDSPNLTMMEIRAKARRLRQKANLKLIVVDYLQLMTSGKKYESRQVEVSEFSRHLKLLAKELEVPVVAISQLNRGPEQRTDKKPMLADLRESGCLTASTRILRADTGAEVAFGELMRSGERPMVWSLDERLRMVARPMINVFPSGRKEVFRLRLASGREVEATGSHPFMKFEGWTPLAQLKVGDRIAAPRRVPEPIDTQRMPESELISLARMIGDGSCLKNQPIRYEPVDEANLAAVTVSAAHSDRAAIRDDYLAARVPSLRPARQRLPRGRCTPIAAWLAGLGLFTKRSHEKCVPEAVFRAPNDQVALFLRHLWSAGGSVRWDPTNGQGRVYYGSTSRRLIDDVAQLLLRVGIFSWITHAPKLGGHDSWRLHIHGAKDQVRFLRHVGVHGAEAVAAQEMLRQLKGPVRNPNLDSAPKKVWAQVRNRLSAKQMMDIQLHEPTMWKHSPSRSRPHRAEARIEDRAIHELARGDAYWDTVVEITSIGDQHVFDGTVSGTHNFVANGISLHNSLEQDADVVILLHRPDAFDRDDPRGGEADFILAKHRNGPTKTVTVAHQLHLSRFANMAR

[8] = molecular target: T3, Protein RecA (Mycobacterium tuberculosis, UniProt P9WHJ3); assay: Fluorescence Cell-Free Homogeneous Dose Retest to Identify Inhibitors of RecA-Intein Splicing Activity. [Related pubchem assays (depositor defined):AID2097, AID2223, AID489010, AID492950]; assay type: functional
T3 sequence (P9WHJ3 whole entry): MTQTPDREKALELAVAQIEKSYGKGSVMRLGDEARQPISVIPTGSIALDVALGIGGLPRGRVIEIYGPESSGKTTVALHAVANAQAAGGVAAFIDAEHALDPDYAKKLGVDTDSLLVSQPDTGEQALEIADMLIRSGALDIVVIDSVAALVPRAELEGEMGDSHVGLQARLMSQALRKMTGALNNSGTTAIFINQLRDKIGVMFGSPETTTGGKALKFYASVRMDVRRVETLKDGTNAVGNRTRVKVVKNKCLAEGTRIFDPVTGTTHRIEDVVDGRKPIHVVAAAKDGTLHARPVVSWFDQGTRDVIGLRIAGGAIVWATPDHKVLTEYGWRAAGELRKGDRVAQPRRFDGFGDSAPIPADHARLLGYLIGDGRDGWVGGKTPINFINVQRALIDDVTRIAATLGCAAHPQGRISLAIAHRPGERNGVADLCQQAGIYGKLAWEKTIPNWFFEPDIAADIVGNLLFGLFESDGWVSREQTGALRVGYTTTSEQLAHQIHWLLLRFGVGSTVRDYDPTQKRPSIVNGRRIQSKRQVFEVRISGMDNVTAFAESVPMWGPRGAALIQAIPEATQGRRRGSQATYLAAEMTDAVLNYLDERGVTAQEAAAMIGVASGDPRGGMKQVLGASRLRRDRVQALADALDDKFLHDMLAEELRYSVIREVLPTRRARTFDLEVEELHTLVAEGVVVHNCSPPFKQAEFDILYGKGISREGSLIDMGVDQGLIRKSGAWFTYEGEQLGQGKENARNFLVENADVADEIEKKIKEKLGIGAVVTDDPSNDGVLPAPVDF

[9] = A549 cell cytotoxicity, dose response, cytotoxicity control, plate reader, cherry-pick, antagonist series (AID 743412); assay type: functional, cell-based
[10] = HepG2 cell cytotoxicity, dose response, cytotoxicity control, plate reader, cherry-pick, antagonist series (AID 743416); assay type: functional, cell-based
[11] = molecular target: T4, Cytochrome P450 1A2 (Homo sapiens, UniProt P05177);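 also: PubChem cytochrome P450 panel assay, CYP1A2 panel member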
T4 sequence (P05177 whole entry): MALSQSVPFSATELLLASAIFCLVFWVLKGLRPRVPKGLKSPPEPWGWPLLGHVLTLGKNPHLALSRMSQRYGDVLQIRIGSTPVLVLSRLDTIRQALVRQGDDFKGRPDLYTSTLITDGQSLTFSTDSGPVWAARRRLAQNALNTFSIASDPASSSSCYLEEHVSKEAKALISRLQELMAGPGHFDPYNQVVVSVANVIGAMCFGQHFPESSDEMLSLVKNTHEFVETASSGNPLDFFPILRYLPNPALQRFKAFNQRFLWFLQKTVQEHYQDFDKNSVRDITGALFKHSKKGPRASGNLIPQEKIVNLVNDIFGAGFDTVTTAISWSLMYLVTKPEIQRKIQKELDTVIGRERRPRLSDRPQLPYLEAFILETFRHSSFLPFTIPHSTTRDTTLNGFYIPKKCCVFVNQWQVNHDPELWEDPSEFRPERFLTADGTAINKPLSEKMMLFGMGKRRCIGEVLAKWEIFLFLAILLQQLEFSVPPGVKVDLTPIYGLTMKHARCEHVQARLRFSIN

[12] = tested on: BJ; assay: cytotoxicity toward BJ-TERT fibroblasts, dose response, cell-based, RAS-independent, luminescence (AID 1933); assay type: functional; settings: Homo sapiens
[13] = tested on: BJ; assay: cells; assay type: functional, cell-based; settings: Homo sapiens
[14] = tested on: BJ; assay: cytotoxicity toward BJ-TERT-LT-ST fibroblasts, dose response, cell-based, RAS-independent, luminescence (AID 1935); assay type: functional; settings: Homo sapiens;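 also: BJ fibroblasts immortalized with TERT plus LT and ST oncogenes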
[15] = cytotoxicity toward DRD oncogenic fibroblasts, dose response, cell-based, non-viral oncogenic, luminescence (AID 1934); assay type: functional; settings: Homo sapiens

Luciferin 4-monooxygenase, sequence (P08659 whole entry): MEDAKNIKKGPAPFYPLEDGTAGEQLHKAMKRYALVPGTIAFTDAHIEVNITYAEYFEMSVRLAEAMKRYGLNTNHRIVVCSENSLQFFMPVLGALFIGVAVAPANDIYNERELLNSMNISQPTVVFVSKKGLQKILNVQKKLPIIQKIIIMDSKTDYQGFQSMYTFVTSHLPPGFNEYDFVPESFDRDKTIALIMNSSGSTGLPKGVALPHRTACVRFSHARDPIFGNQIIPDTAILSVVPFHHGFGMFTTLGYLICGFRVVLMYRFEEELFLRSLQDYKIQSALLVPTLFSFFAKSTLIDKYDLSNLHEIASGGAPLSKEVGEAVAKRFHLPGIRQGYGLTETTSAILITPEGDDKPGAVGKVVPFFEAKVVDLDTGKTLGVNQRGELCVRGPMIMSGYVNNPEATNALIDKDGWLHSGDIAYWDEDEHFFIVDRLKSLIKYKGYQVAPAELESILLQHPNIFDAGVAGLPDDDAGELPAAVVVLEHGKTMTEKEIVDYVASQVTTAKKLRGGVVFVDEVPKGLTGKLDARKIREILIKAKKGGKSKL

Structure (SMILES) | EC50 [1] | EC50 [2] | AC50 [3] | AC50 [4] | AC50 [5] | AC50 [6] | AC50 [7] | EC50 [8] | AC50 [9] | AC50 [10] | AC50 [11] | EC50 [12] | EC50 [13] | EC50 [14] | EC50 [15]
COc1cc(SC)ccc1C(=O)Nc1ncc(C)s1 | 8.16 µM (active) | 11.6 µM (active) | 3.65 µM (active) | 1 µM (active) | 1.01 µM (active) | > 52 µM (inactive) |  |  |  |  |  |  |  |  | 
Cc1cccc(Cn2ncc(Cl)c(Cl)c2=O)c1 |  |  |  |  |  | 17.4 µM (active) | 27.5 µM (active) | 6.04 µM (active) | 30 µM (active) | 37.3 µM (active) | 22.4 µM (inconclusive) |  |  |  | 
O=[N+]([O-])c1ccc(Sc2nnnn2-c2ccccc2)nc1 |  |  |  | 14.9 µM (active) | 17.6 µM (active) | 12.5 µM (active) | 14.5 µM (active) | 5.61 µM (active) | 18.5 µM (active) | 15.7 µM (active) |  | 6.26 µM (active) | 63.6 µM (inconclusive) | > 150 µM (inconclusive) | 9.86 µM (active)
